Entries after “also recorded” stand apart in the source; their conditions may differ. Read-outs that look alike come from different tables or passages of the source.
Assays:
HeLa = assay: Antiproliferative assay (resazurin, 72 h); assay type: cell-based, human; settings: 72 h incubation, read-out: Growth Inhibition IC50 HeLa
Description: (§1) Cells were seeded in 96-well plates (5×10^3 cells/well) containing 50 μL growth medium for 24 hours. After medium removal, 100 μL fresh medium containing individual analog compound at different concentrations was added to each well and incubated at 37° C. for 72 h. […] After 72 h of incubation, 20 μL of resazurin was added for 2 h before recording fluorescence at 560 nm (excitation) and 590 nm (emission) using a Victor microtiter plate fluorimeter (Perkin-Elmer, USA).

A549 = assay: Antiproliferative assay (resazurin, 72 h); assay type: cell-based, human; settings: A549, 72 h incubation, read-out: Growth Inhibition IC50 A549
Description: as §1

MDA-MB-231 = assay: Antiproliferative assay (resazurin, 72 h); assay type: cell-based, human; settings: MDA-MB-231, 72 h incubation, read-out: Growth Inhibition IC50 MDA-MB-231
Description: as §1

HeLa cells [1] = assay: Cytofluorimetric analysis of cell cycle distribution; assay type: cell-based, human; settings: 1 μM, 24 h
Description: Cells treated with tested compounds for 24 h were washed once in PBS and resuspended in 1 mL of 70% ice cold ethanol and stored at −20° C. Fixed cells were washed twice in PBS and then treated with 1 mL of 0.1 mg/mL of RNase. […] DNA was then stained with a PBS solution containing 0.1 mg/mL propidium iodide for 30 min at room temperature in the dark. Cell cycle analysis was determined with Accuri C6 (BD Biosciences, Mountain View, Calif.).

bovine brain tubulin = assay: Tubulin polymerization assay; settings: compared to vehicle (DMSO)
Description: It is based on the principal that light is scattered by microtubules to an extent that is proportional to the concentration of the microtubule polymer. Compounds that interact with tubulin will alter the polymerization of tubulin, and this can be detected using a spectrophotometer. The absorbance at 340 nm at 37° C. is monitored. The experimental procedure of the assay was performed as described in version 8.2 of the tubulin polymerization assay kit manual. Varying concentrations of compounds were preincubated with 10 μM bovine brain tubulin in glutamate buffer at 30° C. and then cooled to 0° C. After the addition of 0.4 mM GTP, the mixtures were transferred to 0° C. cuvettes in a recording spectrophotometer and warmed to 30° C. Tubulin assembly was followed turbidimetrically at 350 nm.
The reaction was initiated by the addition of tubulin to a final concentration of 3.0 mg/mL

MDA-MB-231 cells [2] = assay: Cytofluorimetric analysis of cell cycle distribution; assay type: cell-based, human; settings: 1 μM, 24 h
Description: Cells treated with tested compounds for 24 h were washed once in PBS and resuspended in 1 mL of 70% ice cold ethanol and stored at −20° C. Fixed cells were washed twice in PBS and then treated with 1 mL of 0.1 mg/mL of RNase. A solution at 37° C. for 1 h. DNA was then stained with a PBS solution containing 0.1 mg/mL propidium iodide for 30 min at room temperature in the dark. Cell cycle analysis was determined with Accuri C6 (BD Biosciences, Mountain View, Calif.).
Similar results were obtained when another metastatic cancer cell line, MDA-MB-231 was used to test the effect of these compounds on cell cycle arrest.

HeLa cells [3] = assay: Immunofluorescence of interphase microtubules; assay type: cell-based, human; settings: 1 μM, 24 h
Description: (§2) MDA-MB-231 and HeLa cells were grown on a Laboratory-Tek chamber slide (VWR International, Radnor, Pa.) and treated with vehicle (DMSO) or 1 μM CA-4 or 4h for 24 hours to 4 days. At the completion of treatment, cells were fixed with 3.7% formaldehyde and permeabilized with 0.1% Triton X-100 in PBS for 4 min. The cells were first incubated for 1 h in a solution of PBS containing 1% BSA and calf serum to block nonspecific antibody binding. The cells were then incubated with the mouse anti-tubulin antibody (1:200) (Life Technologies, Grand Island, N.Y.), washed 3 times in PBS containing 1% BSA and incubated for 2 h at room temperature with secondary goat antimouse antibody Alexa 488 labeled (1:200) for tubulin staining. The chamber slides were examined and photographed using a Nikon ES800 fluorescence microscope with a digital camera.
(§3) To determine the microtubule disrupting effects of the pyridine-linked analogs, compound 4h was selected as a representative compound in a cell-based phenotypic screening. HeLa and MDA-MB-231 cells were used to examine the effect of 4h on the reorganization of microtubules during mitosis. Cells were treated with either 4h or CA-4 for 24 h, and microtubules were visualized by indirect immunofluorescence techniques. An antibody for β-tubulin was used to visualize interphase and mitotic microtubule structures.
(§4) At FIG. 37 the effects of CA-4 and 4h on interphase microtubules are shown. MDA-MB-231 and HeLa cells were treated with vehicle (A, D) or 1 μM compounds (B, C and E, F) as indicated for 24 hours. Cells were then fixed and microtubules visualized by indirect immunofluorescence techniques. Normal interphase microtubules are visible in the control cells of HeLa and MDA-MB-231. The loss of interphase microtubules induced by CA-4 and 4h is shown in respective treatments as labeled.

MDA-MB-231 cells [4] = assay: Immunofluorescence of interphase microtubules; assay type: cell-based, human; settings: 1 μM, 24 h
Description: as §2, §3, §4

[5] = tested on: chick embryo chorioallantoic membrane; assay: Chick embryo chorioallantoic membrane (CAM) anti-angiogenesis assay; assay type: in vivo; settings: for Angiogenesis score (scale 0-3) versus positive control BV (bFGF+VEGF): collagen onplant with bFGF+VEGF on CAM, four days
Description: Fertilized embryos were obtained from Charles River Laboratories and incubated at 37.5° C. for 3 days, removed from their shell using a Dremel tool and placed into a covered weighing boat for 10 further days of incubation. Solidified 30 µL onplants containing 2.1 mg/mL rat tail collagen (BD Biosciences, Bedford, Mass.) and 10 ng/mL bFGF and 30 ng/mL VEGF in the presence or absence of CA-4 and 4s were placed on the embryo chorioallantoic membrane (CAM) over two pieces of nylon mesh approximately 0.5 cm^2. Four collagen onplants were added per egg on at least 3 separate eggs. After four days of incubation, images were taken of each plug on surviving embryos using a mini-Vid camera (LW Scientific; Lawrenceville, Ga.) and quantified in a masked fashion on a scale from 0-3 with 0 representing no angiogenesis and 3 representing extreme angiogenesis. Data from one scorer (confirmed by a second scorer) are presented as the means±standard errors of the mean. Statistical significances were determined by one-way analysis of variance (ANOVA) followed by Dunnett's multiple comparison test (GraphPad Prism, La Jolla, Calif.).
In this test the vascular system of a fertilized chicken embryo is used as a model. […] The anti-angiogenesis activity of 4s and CA-4 were determined by the suppression of angiogenic action of BV (bFGF+VEGF) when the compound was added to a collagen containing BV and placed on the chorioallantoic membrane of […] chick embryos for four days. Angiogenesis was scored by two scorers in a blinded fashion.

| SMILES | IC50 (HeLa; Homo sapiens, 72 h) | IC50 (A549; Homo sapiens, A549, 72 h) | IC50 (MDA-MB-231; Homo sapiens, MDA-MB-231, 72 h) | Cell cycle distribution G0/G1 (HeLa cells [1]) | Cell cycle distribution G2/M (HeLa cells [1]) | Cell cycle distribution S (HeLa cells [1]) | Inhibition of tubulin polymerization (bovine brain tubulin; compound at 10 μM) | Cell cycle distribution G0/G1 (MDA-MB-231 cells [2]) | Cell cycle distribution G2/M (MDA-MB-231 cells [2]) | Cell cycle distribution S (MDA-MB-231 cells [2]) | Effect on interphase microtubule network (HeLa cells [3]) | Effect on interphase microtubule network (MDA-MB-231 cells [4]) | Inhibition of tubulin polymerization (bovine brain tubulin; compound at 1 μM) | Effect on new vessel growth ([5]; CAM, 4 days after treatment) | Angiogenesis score (scale 0-3) versus positive control BV (bFGF+VEGF) [5] | further results |
| --- | --- | --- | --- | --- | --- | --- | --- | --- | --- | --- | --- | --- | --- | --- | --- | --- |
| COc1ccc(-c2cccc(-c3ccc(OC)cc3OC)n2)cc1 [Compound 4h, 2-(2,4-Dimethoxyphenyl)-6-(4-methoxyphenyl)pyridine] | 3.8 nM | 89 nM | 3.1 nM | 10.30% | 73.4% | 15.40% | remained ineffective against tubulin polymerization | 13.10% | 70.5% | 16.40% | dramatic reduction of the interphase microtubule network | dramatic reduction of the interphase microtubule network |  |  |  | Inhibition of tubulin polymerization (bovine brain tubulin; compound at 1 μM, 1 µM): failed to inhibit tubulin polymerization; also recorded: slightly stimulating tubulin polymerization |
| COc1ccc(/C=C\c2cc(OC)c(OC)c(OC)c2)cc1O [CA-4, Combretastatin A4, reference compound] |  |  |  | 37.00% | 44.6% | 16.70% | nearly completely blocked tubulin polymerization | 27.50% | 57.80% | 11.80% | very similar loss of the microtubule network | very similar loss of the microtubule network | 35% | inhibition of new vessel growth and vessel shrinkage | scored significantly lower than the positive control | IC50 (HeLa): 0.9 nM; IC50 (A549): 3.8 nM; IC50 (MDA-MB-231): 2.8 nM |
| COc1ccc(-c2cccc(-c3ccc(OC)c(O)c3)n2)c(OC)c1 [Compound 4s, 5-(6-(2,4-Dimethoxyphenyl)pyridine-2-yl)-2-methoxyphenol] | 1.4 nM | 44 nM | 4.6 nM | 12.10% | 70.6% | 17.10% | 57% | 18.60% | 54.1% | 17.10% |  |  | failed to inhibit tubulin polymerization | inhibition of new vessel growth and vessel shrinkage | scored significantly lower than the positive control | melting point: 142 to 144 °C; Anti-angiogenesis activity compared with CA-4 ([5]; CAM, 4 days after treatment): more effective than CA-4 in suppressing new vessel growth |

Source: patent US10017475B2, “Anti-vasculature and anti-tubulin combretastatin analogs for treatment of cancer” (XAVIER UNIVERSITY OF LOUISIANA, priority 2014, dated 2018)
